Experimental data taken from patent US20070093520A1, “Method of treatment of diarrhea-predominant irritable bowel syndrome in a subject” (priority 2005, published 2007).

System: diarrhea-predominant IBS subjects
Assay: 3007 Study: open-label 52-week safety study, adverse events and withdrawals
Conditions: Overall

Cc1nccn1C[C@H]1CCc2c(c3cccc4c3n2CCC4)C1=O [cilansetron, (R)-(−)-4,5,6,8,9,10-hexahydro-10-[(2-methyl-1H-imidazol-1-yl)methyl]-11H-pyrido-[3,2,1-jk]-carbazol-11-one]
437 (82%) n (%): TEAE: Total Number of Subjects with at Least One TEAE
27 (5%) n (%): TEAE: Skeletal and Cardiac Muscle Analyses
15 (3%) n (%): TEAE: Vascular Hypertensive Disorders NEC | TEAE: Viral Infections NEC
21 (4%) n (%): TEAE: Vascular Disorders
11 (2%) n (%): TEAE leading to permanent discontinuation: Abdominal Pain NOS (N=536)
37 (7%) n (%): TEAE: Sinusitis NOS
1 (<1%) n (%): TEAE: Sexual Desire Disorders | TEAE: Sick Sinus Syndrome | TEAE: Sinus Arrhythmia | TEAE: Sinusitis Acute NOS | TEAE: Skin Disorder NOS | TEAE: Skin Fungal Infection NOS | TEAE: Skin Infection NOS | TEAE: Skin Neoplasms Benign | TEAE: Skin Ulcer | TEAE: Skin and Subcutaneous Tissue Ulcerations | TEAE: Social Circumstances | TEAE: Speech and Language Abnormalities | TEAE: Spinal Cord and Nerve Root Disorders NEC | TEAE: Spondylitic Myelopathy | TEAE: Spondyloarthropathies | TEAE: Spondylosis | TEAE: Staphylococcal Infection NOS | TEAE: Staphylococcal Infections | TEAE: Status Epilepticus | TEAE: Stomach Discomfort | TEAE: Strabismus | TEAE: Streptococcal Infection NOS | TEAE: Stress Fracture | TEAE: Stress Incontinence | TEAE: Stress Symptoms | TEAE: Structural and Other Bile Duct Disorders | TEAE: Sugar Intolerance (Excl Glucose Intolerance) | TEAE: Suicidal Ideation | TEAE: Suicidal and Self-Injurious Behaviour | TEAE: Supraventricular Tachycardia | TEAE: Swelling Face | TEAE: Tachycardia NOS | TEAE: Temporomandibular Joint Disorder NOS | TEAE: Tenderness NOS | TEAE: Tension Headaches | TEAE: Thoracic Cage Fractures and Dislocations | TEAE: Thrombocytopenia | TEAE: Thrombocytopenias | TEAE: Thrombophlebitis Superficial | TEAE: Thyroid Disorders NEC | TEAE: Thyroid Neoplasms | TEAE: Thyroid Nodule | TEAE: Tinea Cruris | TEAE: Tinea Pedis | TEAE: Tinnitus | TEAE: Tongue Coated | TEAE: Tongue Signs and Symptoms | TEAE: Tooth Disorder NOS | TEAE: Tooth Impacted | TEAE: Transient Global Amnesia | TEAE: Trigger Finger | TEAE: Tympanic Membrane Disorder NOS | TEAE: Tympanic Membrane Disorders (Excl Infections) | TEAE: Umbilical Hernia NOS | TEAE: Umbilical Hernias | TEAE: Upper Limb Fractures and Dislocations | TEAE: Urinary Incontinence | TEAE: Urinary Retention | TEAE: Urinary Tract Lithiasis (Excl Renal) | TEAE: Urinary Tract Signs and Symptoms NEC | TEAE: Urine Abnormal NOS | TEAE: Urine Analysis Abnormal NOS | TEAE: Urine Bilirubin Increased | TEAE: Urobilin Urine Present | TEAE: Uterine Fibroids* | TEAE: Uterine Neoplasms Benign* | TEAE: Vaginal Cyst* | TEAE: Vaginal Lesion* | TEAE: Vascular Hypotensive Disorders | TEAE: Vasovagal Attack | TEAE: Ventricular Extrasystoles | TEAE: Visual Acuity Reduced | TEAE: Vitreous Disorder NOS | TEAE: Vulvovaginal Cysts and Neoplasms* | TEAE: Wheezing | TEAE: White Blood Cell Count Decreased | TEAE: White Blood Cells Urine Positive | TEAE leading to permanent discontinuation: Abdominal Pain Aggravated (N=536) | TEAE leading to permanent discontinuation: Alanine Aminotransferase Increased (N=536) | TEAE leading to permanent discontinuation: Angina Pectoris (N=536) | TEAE leading to permanent discontinuation: Appendicitis (N=536) | TEAE leading to permanent discontinuation: Asthma Aggravated (N=536) | TEAE leading to permanent discontinuation: Asthma NOS (N=536) | TEAE leading to permanent discontinuation: Bladder Prolapse (N=536) | TEAE leading to permanent discontinuation: Blood Bilirubin Increased (N=536) | TEAE leading to permanent discontinuation: Blood Pressure Increased (N=536) | TEAE leading to permanent discontinuation: Blood Urine Present (N=536) | TEAE leading to permanent discontinuation: Bone Neoplasm Malignant (N=536) | TEAE leading to permanent discontinuation: Cardiac Disorders (N=536) | TEAE leading to permanent discontinuation: Chest Discomfort (N=536) | TEAE leading to permanent discontinuation: Chest Pain (N=536) | TEAE leading to permanent discontinuation: Chest Wall Pain (N=536) | TEAE leading to permanent discontinuation: Colitis Ischaemic (N=536) | TEAE leading to permanent discontinuation: Cough (N=536) | TEAE leading to permanent discontinuation: Dehydration (N=536) | TEAE leading to permanent discontinuation: Depression (N=536) | TEAE leading to permanent discontinuation: Diarrhoea Haemorrhagic (N=536)
5 (<1%) n (%): TEAE: Urine Ketone Body Present | TEAE: Urine Leukocyte Esterase Positive | TEAE: Vascular Tests NEC (Incl Blood Pressure) | TEAE: White Blood Cell Analyses
10 (2%) n (%): TEAE: Triglyceride Analyses
39 (7%) n (%): TEAE: Skin and Subcutaneous Tissue Disorders
6 (1%) n (%): TEAE: Site Specific Injuries NEC | TEAE: Skin Neoplasms Malignant and Unspecified (Excl Melanoma) | TEAE: Urinary Abnormalities | TEAE: Weight Increased | TEAE leading to permanent discontinuation: Diarrhoea NOS (N=536)
61 (11%) n (%): TEAE: Upper Respiratory Tract Infections - Pathogen Class Unspecified
29 (5%) n (%): TEAE: Urinary Tract Infections
7 (1%) n (%): TEAE: Tooth Abscess | TEAE: Upper Respiratory Tract Signs and Symptoms
26 (5%) n (%): TEAE: Upper Respiratory Tract Infection NOS | TEAE: Urinary Tract Infection NOS
28 (5%) n (%): TEAE leading to permanent discontinuation: Constipation (N=536)
18 (3%) n (%): TEAE: Vomiting NOS
8 (1%) n (%): TEAE: Sinus Congestion | TEAE: Streptococcal Infections
4 (<1%) n (%): TEAE: Supraventricular Arrhythmias | TEAE: Viral Infection NOS | TEAE leading to permanent discontinuation: Abdominal Distension (N=536) | TEAE leading to permanent discontinuation: Abdominal Pain Upper (N=536) | TEAE leading to permanent discontinuation: Back Pain (N=536)
2 (<1%) n (%): TEAE: Sleep Apnoea Syndrome | TEAE: Sleep Apnoeas | TEAE: Soft Tissue Disorders NEC | TEAE: Somnolence | TEAE: Surgical and Medical Procedures | TEAE: Sweating Increased | TEAE: Tendonitis | TEAE: Thyroid Hypofunction Disorders | TEAE: Tinea Infections | TEAE: Tooth Infection | TEAE: Total Fluid Volume Decreased | TEAE: Tremor | TEAE: Tremor (Excl Congenital) | TEAE: Uterine Disorders NEC* | TEAE: Uterine Neoplasms* | TEAE: Uterine Polyp NOS* | TEAE: Varicose Vein Ruptured | TEAE: Varicose Veins Non-Site Specific | TEAE: Vascular Auscultatory Investigations | TEAE: Ventricular Arrhythmias and Cardiac Arrest | TEAE: Vertigo | TEAE: Vulvovaginal Dryness* | TEAE: Weight Decreased | TEAE leading to permanent discontinuation: Abdominal Pain Lower (N=536) | TEAE leading to permanent discontinuation: Diarrhoea Aggravated (N=536) | TEAE leading to permanent discontinuation: Dizziness (N=536)
3 (<1%) n (%): TEAE: Sinus Headache | TEAE: Skin Injuries and Mechanical Dermatoses | TEAE: Skin Lesion NOS | TEAE: Skin Structures and Soft Tissue Infections | TEAE: Soft Tissue Neoplasms Benign NEC | TEAE: Tendon Disorders | TEAE: Tissue Enzyme Analyses NEC | TEAE: Toothache | TEAE: Urinary Frequency | TEAE: Urticaria NOS | TEAE: Urticarias | TEAE: Vulvovaginal Signs and Symptoms*
16 (3%) n (%): TEAE: Urinalysis NEC
